In patent publication US20140256551A1, “HERBICIDAL COMPOSITIONS COMPRISING ISOXABEN AND FLUFENACET” (Dow AgroSciences LLC, priority 2013, published 2014):

Legend:
Assay type in all cases: in vivo
Details in all cases: 200 L/ha water, isoxaben 40, flufenacet 200, diflufenican 100 g ai/ha, observed mean
[1] = test system: STEME (Stellaria media (L.) Vill., common chickweed); test: Trial 1: small plot field experiment in winter wheat, foliar applied, visual % control of STEME
Excerpt: (§1) Results in Tables 1 and 2 are for foliar applied compositions in small plot research experiments to evaluate the efficacy of the compositions in winter wheat. Application water volume was 200 liters per hectare (L/ha). Crop stage at time of application was 12-13. The values reported are means. […] Colby's equation was used to determine the herbicidal effects expected from the mixtures (Colby, S. R. Calculation of the synergistic and antagonistic response of herbicide combinations. Weeds 1967, 15, 20-22.). More specifically, the following equation was used to calculate the expected activity of mixtures containing two active ingredients, A and B:
(§2) A=observed efficacy of active ingredient A at the same concentration as used in the mixture;
(§3) B=observed efficacy of active ingredient B (or combination B) at the same concentration as used in the mixture.

[2] = test system: BRSNW (Brassica napus, winter oilseed rape); test: Trial 1: small plot field experiment in winter wheat, foliar applied, visual % control of BRSNW
Excerpt: as §1, §2, §3

[3] = test system: GERDI (Geranium dissectum, cutleaf geranium); test: Trial 1: small plot field experiment in winter wheat, foliar applied, visual % control of GERDI
Excerpt: as §1, §2, §3

[4] = test system: BRSNW (Brassica napus, winter oilseed rape); test: Trial 2: small plot field experiment in winter wheat, foliar applied, visual % control of BRSNW
Excerpt: as §1, §2, §3

## CC(C)N(C(=O)COc1nnc(C(F)(F)F)s1)c1ccc(F)cc1 [flufenacet, N-(4-fluorophenyl)-N-(1-methylethyl)-2-[[5-(trifluoromethyl)-1,3,4-thiadiazol-2-yl]oxy]acetamide]
[1]
  VISUAL % CONTROL OF STEME 28 DAT, Ob: 0 e %
[2]
  VISUAL % CONTROL OF BRSNW 28 DAT, Ob: 0 d %
[3]
  VISUAL % CONTROL OF GERDI 28 DAT, Ob: 0 d %
[4]
  VISUAL % CONTROL OF BRSNW 13 DAT, Ob: 43 cd %
  VISUAL % CONTROL OF BRSNW 25 DAT, Ob: 55 b %

## CCC(C)(CC)c1cc(NC(=O)c2c(OC)cccc2OC)on1 [isoxaben, N-[3-(1-ethyl-1-methylpropyl)isoxazol-5-yl]-2,6-dimethoxybenzamide]
[1]
  VISUAL % CONTROL OF STEME 28 DAT, Ob: 0 e %
[2]
  VISUAL % CONTROL OF BRSNW 28 DAT, Ob: 0 d %
[3]
  VISUAL % CONTROL OF GERDI 28 DAT, Ob: 0 d %
[4]
  VISUAL % CONTROL OF BRSNW 13 DAT, Ob: 22 de %
  VISUAL % CONTROL OF BRSNW 25 DAT, Ob: 23 cd %
